Activity calls are given as the source filed them. The calls are words filed in the database; no cut-off is given here.
How the values were obtained:
NCI/ADR-RES [1] = experiment: Effect on ABCC1 gene expression in doxorubicin-resistant human MCF-7/ADR cells at 5 uM incubated for 12 hrs; assay type: functional, cell-based
[2] = Toxicity in BALB/c mouse xenografted with doxorubicin-resistant human MCF-7/ADR cells assessed as heart morphological changes at 10 mg/kg for every 2 days once injected through abdominal cavity for 14 days by hematoxylin and eosin staining based analysis; assay type: organism-based; details: in vivo, ip, 336 h, time 14 day
NCI/ADR-RES [3] = experiment: In vivo resistance reversal activity in doxorubicin-resistant human MCF-7/ADR cells xenografted in BALB/c mouse model assessed as potentiation of doxorubicin antitumor effect by measuring reduction in tumor weight at 10 mg/kg for every 2 days once injected through abdominal cavity for 14 days; assay type: functional, organism-based; details: time 14.0 day
NCI/ADR-RES [4] = experiment: Effect on P-glycoprotein expression in doxorubicin-resistant human MCF-7/ADR cells at 2.5 to 10 uM incubated for 48 hrs by Western blotting analysis; assay type: functional, cell-based; details: dose 2.5-10 µM
[5] = target: T1, ATP-dependent translocase ABCB1 (Homo sapiens, UniProt P08183); experiment: Inhibition of P-glycoprotein mediated Rhodamine-123 efflux in doxorubicin-resistant human MCF-7/ADR cells assessed as fluorescence intensity of rhodamine-123 accumulation incubated for 30 mins by flow cytometry analysis; assay type: cell-based; details: nci-adr-res, 0.5 h, at 2.5 to 10 µM, dose 2.5-10 µM
T1 sequence (P08183 whole entry): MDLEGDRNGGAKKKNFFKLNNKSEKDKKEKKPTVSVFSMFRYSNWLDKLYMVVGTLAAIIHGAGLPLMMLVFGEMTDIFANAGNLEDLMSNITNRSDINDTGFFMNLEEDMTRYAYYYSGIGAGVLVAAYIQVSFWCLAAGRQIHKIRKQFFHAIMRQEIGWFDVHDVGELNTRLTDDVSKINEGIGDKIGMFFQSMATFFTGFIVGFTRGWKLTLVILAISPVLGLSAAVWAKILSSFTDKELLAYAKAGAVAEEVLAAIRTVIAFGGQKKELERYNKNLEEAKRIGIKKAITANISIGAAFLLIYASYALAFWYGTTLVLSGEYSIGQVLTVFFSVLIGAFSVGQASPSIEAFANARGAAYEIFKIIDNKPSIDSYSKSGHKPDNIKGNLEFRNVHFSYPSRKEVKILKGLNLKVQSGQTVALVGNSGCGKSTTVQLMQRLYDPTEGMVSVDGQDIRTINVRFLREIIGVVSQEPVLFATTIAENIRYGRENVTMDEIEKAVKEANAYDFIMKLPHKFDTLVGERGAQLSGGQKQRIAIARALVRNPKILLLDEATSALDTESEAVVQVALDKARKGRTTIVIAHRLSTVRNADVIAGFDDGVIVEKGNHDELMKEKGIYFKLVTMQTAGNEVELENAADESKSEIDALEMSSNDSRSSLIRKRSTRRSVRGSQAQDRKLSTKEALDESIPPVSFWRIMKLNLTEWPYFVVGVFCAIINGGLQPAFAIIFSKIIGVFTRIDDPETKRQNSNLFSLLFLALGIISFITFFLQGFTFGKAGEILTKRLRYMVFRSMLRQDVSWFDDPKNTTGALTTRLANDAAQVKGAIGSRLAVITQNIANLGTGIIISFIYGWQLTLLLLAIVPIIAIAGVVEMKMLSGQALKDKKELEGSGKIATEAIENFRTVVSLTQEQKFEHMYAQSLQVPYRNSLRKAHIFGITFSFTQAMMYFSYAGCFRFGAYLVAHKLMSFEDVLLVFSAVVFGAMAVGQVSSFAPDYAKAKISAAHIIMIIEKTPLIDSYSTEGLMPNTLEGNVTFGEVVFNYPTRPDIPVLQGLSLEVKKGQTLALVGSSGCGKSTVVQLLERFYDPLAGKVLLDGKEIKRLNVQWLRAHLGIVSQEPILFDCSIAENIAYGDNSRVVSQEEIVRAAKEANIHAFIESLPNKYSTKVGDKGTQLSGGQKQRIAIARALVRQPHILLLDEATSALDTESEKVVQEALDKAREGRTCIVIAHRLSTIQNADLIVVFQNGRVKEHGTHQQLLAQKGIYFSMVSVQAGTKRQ

MCF7 = experiment: Cytotoxicity against human MCF7 cells assessed as inhibition rate at 5 uM measured after […] hrs by CCK-8 assay relative to control; assay type: functional
NCI/ADR-RES [6] = experiment: Effect on ABCF2 gene expression in doxorubicin-resistant human MCF-7/ADR cells at 5 uM incubated for 12 hrs; assay type: functional, cell-based
NCI/ADR-RES [7] = experiment: In vivo resistance reversal activity in doxorubicin-resistant human MCF-7/ADR cells xenografted in BALB/c mouse model assessed as reduction in tumor volume at 10 mg/kg for every 2 days once injected through abdominal cavity for 14 days; assay type: functional, organism-based; details: time 14.0 day
[8] = Toxicity in BALB/c mouse xenografted with doxorubicin-resistant human MCF-7/ADR cells assessed as kidney morphological changes at 10 mg/kg for every 2 days once injected through abdominal cavity for 14 days by hematoxylin and eosin staining based analysis; assay type: organism-based; details: in vivo, ip, 336 h, time 14 day
[9] = Toxicity in BALB/c mouse xenografted with doxorubicin-resistant human MCF-7/ADR cells assessed as lung morphological changes at 10 mg/kg for every 2 days once injected through abdominal cavity for 14 days by hematoxylin and eosin staining based analysis; assay type: organism-based; details: in vivo, ip, 336 h, time 14 day
NCI/ADR-RES [10] = experiment: In vivo resistance reversal activity in doxorubicin-resistant human MCF-7/ADR cells xenografted in BALB/c mouse model assessed as reduction in tumor weight at 10 mg/kg for every 2 days once injected through abdominal cavity for 14 days; assay type: functional, organism-based; details: time 14.0 day
NCI/ADR-RES [11] = experiment: Effect on ABCA2 gene expression in doxorubicin-resistant human MCF-7/ADR cells at 5 uM incubated for 12 hrs; assay type: functional, cell-based
[12] = Toxicity in BALB/c mouse xenografted with doxorubicin-resistant human MCF-7/ADR cells assessed as liver morphological changes at 10 mg/kg for every 2 days once injected through abdominal cavity for 14 days by hematoxylin and eosin staining based analysis; assay type: organism-based; details: in vivo, ip, 336 h, time 14 day
[13] = Toxicity in BALB/c mouse xenografted with doxorubicin-resistant human MCF-7/ADR cells assessed as spleen morphological changes at 10 mg/kg for every 2 days once injected through abdominal cavity for 14 days by hematoxylin and eosin staining based analysis; assay type: organism-based; details: in vivo, ip, 336 h, time 14 day
[14] = target: T1, ATP-dependent translocase ABCB1; experiment: Binding affinity to P-glycoprotein in doxorubicin-resistant human MCF-7/ADR cells assessed as thermal stability measured 40 to 60 degC at 0.5 to 2.5 uM incubated for 30 mins by CETSA; assay type: cell-based; details: nci-adr-res, 0.5 h, dose 0.5-2.5 µM
NCI/ADR-RES [15] = experiment: Effect on ABCD4 gene expression in doxorubicin-resistant human MCF-7/ADR cells at 5 uM incubated for 12 hrs; assay type: functional, cell-based
NCI/ADR-RES [16] = experiment: In vivo resistance reversal activity in doxorubicin-resistant human MCF-7/ADR cells xenografted in BALB/c mouse model assessed as potentiation of doxorubicin antitumor effect by measuring reduction in tumor volume at 10 mg/kg for every 2 days once injected through abdominal cavity for 14 days; assay type: functional, organism-based; details: time 14.0 day
NCI/ADR-RES [17] = experiment: Cytotoxicity against doxorubicin-resistant human MCF-7/ADR cells assessed as inhibition rate at 5 uM measured after […] hrs by CCK-8 assay relative to control; assay type: functional
NCI/ADR-RES [18] = experiment: Effect on ABCB6 gene expression in doxorubicin-resistant human MCF-7/ADR cells at 5 uM incubated for 12 hrs; assay type: functional, cell-based
NCI/ADR-RES [19] = experiment: Effect on ABCC4 gene expression in doxorubicin-resistant human MCF-7/ADR cells at 5 uM incubated for 12 hrs; assay type: functional, cell-based
[20] = Toxicity in BALB/c mouse xenografted with doxorubicin-resistant human MCF-7/ADR cells assessed as body weight change at 10 mg/kg for every 2 days once injected through abdominal cavity for 14 days; assay type: organism-based; details: in vivo, ip, 336 h, time 14 day
NCI/ADR-RES [21] = experiment: Effect on ABCG2 gene expression in doxorubicin-resistant human MCF-7/ADR cells at 5 uM incubated for 12 hrs; assay type: functional, cell-based
[22] = target: T1, ATP-dependent translocase ABCB1; experiment: Inhibition of P-gp-mediated multidrug resistance in doxorubicin-resistant human MCF7/ADR cells assessed as fold reversal of resistance by measuring doxorubicin IC50 incubated for 48 hrs by CCK-8 assay relative to doxorubicin IC50 in absence of compound; assay type: cell-based; details: nci-adr-res

Structure (SMILES): COc1cc2c(cc1OC)CN(C(=O)c1cc3cc(-c4ccc(NC(=O)c5ccc(Cl)cc5)cc4)ccc3[nH]1)CC2
- Activity (NCI/ADR-RES [1]): inactive
- Activity [2]: Non-Toxic
- Activity (NCI/ADR-RES [3]): Active
- Activity (NCI/ADR-RES [4]): inactive
- inhibition (INH) [5]: Dose-Dependent Effect
- inhibition at 5 µM (MCF7): 21.7%
- Activity (NCI/ADR-RES [6]): inactive
- Activity (NCI/ADR-RES [7]): inactive
- Activity [8]: Non-Toxic
- Activity [9]: Non-Toxic
- Activity (NCI/ADR-RES [10]): inactive
- Activity (NCI/ADR-RES [11]): inactive
- Activity [12]: Non-Toxic
- Activity [13]: Non-Toxic
- Activity [14]: Active
- Activity (NCI/ADR-RES [15]): inactive
- Activity (NCI/ADR-RES [16]): Active
- inhibition at 5 µM (NCI/ADR-RES [17]): 25%
- Activity (NCI/ADR-RES [18]): inactive
- Activity (NCI/ADR-RES [19]): inactive
- Activity [20]: Non-Toxic
- Activity (NCI/ADR-RES [21]): inactive
- fold change (FC) [22]: 6011

Source: ChEMBL document CHEMBL5380848, “Novel Benzo Five-Membered Heterocycle Derivatives as P-Glycoprotein Inhibitors: Design, Synthesis, Molecular Docking, and Anti-Multidrug Resistance Activity” (J Med Chem, 2023)
